Test results: patent US20070265278A1, “2-PHENYL-INDOLES AS PROSTAGLANDIN D2 RECEPTOR ANTAGONISTS” (Aventis Pharmaceuticals Inc., priority 2005, published 2007)

The compounds below were run against T1, DP receptor (Homo sapiens, UniProt Q13258) (assay: SPA cAMP assay in human LS174 T cells (human DP functional assay)). Conditions: inhibition of PGD2 (15 nM)-stimulated cAMP, LS174T cells expressing endogenous DP receptor.
T1 construct: using the human cell line LS174T, which expresses the endogenous DP receptor; endogenous in cells; host or cells: LS174T human cell line
T1 sequence (Q13258 1-359): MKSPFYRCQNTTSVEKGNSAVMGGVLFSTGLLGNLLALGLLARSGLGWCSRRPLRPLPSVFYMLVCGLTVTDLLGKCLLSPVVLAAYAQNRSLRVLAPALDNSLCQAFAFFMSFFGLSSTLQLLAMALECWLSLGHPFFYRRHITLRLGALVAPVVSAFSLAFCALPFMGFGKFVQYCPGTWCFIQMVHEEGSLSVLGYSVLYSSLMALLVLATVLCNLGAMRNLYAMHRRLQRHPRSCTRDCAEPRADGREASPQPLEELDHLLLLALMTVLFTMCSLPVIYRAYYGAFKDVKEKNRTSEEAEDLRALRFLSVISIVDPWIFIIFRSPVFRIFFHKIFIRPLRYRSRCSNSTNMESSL
Format: cell-based
Procedure: The inhibitory effects of the compounds according to the invention are assessed in a human DP functional assay. A cAMP assay is employed using the human cell line LS174T, which expresses the endogenous DP receptor. The protocol is similar to that described previously (Wright D H, Ford-Hutchinson A W, Chadee K, Metters K M, The human prostanoid DP receptor stimulates mucin secretion in LS174T cells, Br J Pharmacol. 131(8):1537-45 (2000)).
Protocol for SPA cAMP Assay in Human LS174 T Cells
• PGD2 (Cayman Chemical Cat#12010) • IBMX (Sigma Cat# 5879) • cAMP SPA direct screening assay system (Amersham code RPA 559) • 96-well cell plates (Wallac Cat# 1450-516) • Wallac 1450 Microplate Trilux scintillation counter (PerkinElmer) • Plate sealers • Eppendorf tubes • Dulbecco's Phosphate-Buffered Saline (PBS) (Invitrogen Cat#14040-133) • Distilled water • Vortex • Magnetic stirrer and stirrer bars Reagent Preparation:
All reagents should be allowed to equilibrate to room temperature before reconstitution.
Transfer the contents of the bottle to a 500 mL graduated cylinder by repeated washing with distilled water. Adjust the final volume to 500 mL with distilled water and mix thoroughly.
Dissolve each of the lysis reagents 1 and 2 in 200 mL assay buffer respectively. Leave at room temperature for 20 minutes to dissolve.
Add 30 mL of lysis buffer 2 to the bottle. Gently shake the bottle for 5 minutes.
Add 15 mL of lysis buffer 2 to each vial, and gently mix until the contents are completely dissolved.
Add 14 mL lysis buffer 2 to each vial and gently mix until the contents are completely dissolved.
Preparation of Immunoreagent
• 1) Add equal volumes of tracer, antiserum and SPA anti-rabbit reagent to a bottle, ensuring that a sufficient volume of this mixture is prepared for the desired number of wells (150 μL/well). • 2) Mix thoroughly. • 3) This immunoreagent solution should be freshly prepared before each assay and not re-used. Standard • 1) Add 1 mL lysis buffer 1 and gently mix until contents are completely dissolved. • 2) The final solution contains cAMP at a concentration of 512 pmol/mL. • 3) Label 7 polypropylene or polystyrene tubes, 0.2 pmol, 0.4 pmol, 0.8 pmol, 1.6 pmol, 3.2 pmol, 6.4 pmol and 12.8 pmol. • 4) Pipette 500 μL of lysis buffer 1 into all the tubes. • 5) Into the 12.8 pmol tube pipette 500 μL of stock standard (512 pmol/mL) and mix thoroughly. Transfer 500 μL from 12.8 pmol tube to the 6.4 pmol tube and mix thoroughly. Repeat this doubling dilution successively with the remaining tubes.
6) 50 μL aliquots in duplicate from each serial dilution and the stock standard will give rise to 8 standard levels of cAMP ranging from 0.2-25.6 pmol standard
Add 50 μL of […] IBMX into 100 mL PBS to make a final concentration of 100 μM and sonicate at 30° C. for 20 minutes.
Dissolve 1 mg PGD2 (FW, 352.5) in 284 μL DMSO to make 10 mM stock solution and store at […]. Before each assay, it is freshly prepared. Add 3 μL of 10 mM stock solution to 20 mL DMSO, mix it thoroughly, and transfer 10 mL to 40 mL PBS.
Compound dilution is carried out in Biomex 2000 (Beckman) using Method 1_cAMP DP 11 points.
5 μL of each compound from the 10 mM stock compound plates is transferred to the wells of a 96-well plate respectively as below.
Fill the plate with 45 μL of DMSO except column 7 is filled with 28 μL DMSO. Pipette column 1 thoroughly, and transfer 12 μL into column 7 parallel. Perform 1:10 serial dilution from column 1 to column 6 and from column 7 to column 11 by transfer 5 μL to 45 μL DMSO to make following concentrations:
Fill a new 96-well plate with 247.5 μL of compound dilution buffer. Transfer 2.5 μL of serially diluted compounds from above plate to the new plate (1:100 dilution) as following:
Cell Growth • 1. LS174 T are always grown in MEM (ATCC Cat# 30-2003), 10% FBS (ATCC Cat# 30-2020) and additional 2 mM L-glutamine, at 37° C. and 5% CO2. • 2. Warm 0.05% Trypsin and Versine (Invitrogen Cat# 25300-054) at 37° C. water bath. • 3. […]
For `COc1ccc(-c2[nH]c3ccccc3c2CC(=O)O)cc1S(=O)(=O)NC1CCCCC1` [Example 10(i), [2-(3-Cyclohexylsulfamoyl-4-methoxy-phenyl)-1H-indol-3-yl]-acetic acid], the IC50 was 63 nM. `O=C(O)Cc1c(-c2ccc(S(=O)(=O)NC3CCCCC3)c(Cl)c2)[nH]c2ccccc12` [Example 10(j), [2-(3-Chloro-4-cyclohexylsulfamoyl-phenyl)-1H-indol-3-yl]-acetic acid] showed an IC50 of 1220 nM. Compound `Cc1ccc(-c2[nH]c3ccccc3c2CC(=O)O)cc1S(=O)(=O)NC1CCCCC1` [Example 10(k), [2-(3-Cyclohexylsulfamoyl-4-methyl-phenyl)-1H-indol-3-yl]-acetic acid] has an IC50 of 2 nM. `O=C(O)Cc1c(-c2cc(C(F)(F)F)cc(S(=O)(=O)NC3CCCCC3)c2)[nH]c2ccccc12` [Example 12, [2-(3-cyclohexylsulfamoyl-5-trifluoromethyl-phenyl)-1H-indol-3-yl]-acetic acid] gave an IC50 of 232 nM. `O=C(O)Cc1c(-c2ccc(Cl)c(NS(=O)(=O)c3ccccc3)c2)[nH]c2ccccc12` [Example 13, [2-(3-benzenesulfonylamino-4-chlorophenyl)-1H-indol-3-yl]-acetic acid] was tested, and the IC50 was 39 nM. `O=C(O)Cc1c(-c2ccc(Cl)c(NC(=O)C3CCCCC3)c2)[nH]c2ccccc12` [Example 14, {2-[4-chloro-3-(cyclohexanecarbonyl-amino)-phenyl]-1H-indol-3-yl}-acetic acid] showed an IC50 of 5860 nM. `O=C(O)c1c(-c2ccc(Cl)c(S(=O)(=O)NC3CCCCC3)c2)[nH]c2ccccc12` [Example 15, 2-(4-Chloro-3-cyclohexylsulfamoyl-phenyl)-1H-indole-3-carboxylic acid] was tested, and the IC50 was 741 nM. Work on `O=C(O)c1ccc2cc(-c3ccc(Cl)c(S(=O)(=O)NC4CCCCC4)c3)[nH]c2c1` [Example 16, 2-(4-Chloro-3-cyclohexylsulfamoyl-phenyl)-1H-indole-6-carboxylic acid] yielded an IC50 of 510 nM.
